Assay results reported in patent EP2698384A1, “Detection of synthetic cannabinoids” (priority 2012, dated 2014).
Structures can show the parent of a compound that is named as a salt.

Each compound was assayed on Antibody to Immunogen V. Details: Cross-reactants at 100 ng/ml; 1000ng/ml; single level of cross reactants.
Format: binding, sheep
Experimental: (§1) The wells of an enhanced binding 96 well polystyrene microtiter plate were coated with IgG fraction of antiserum raised to Immunogen VI, diluted in 10mM Tris, pH8.5 (125µl/well). The appropriate antibody coating dilution was determined using standard ELISA checkerboard techniques. The plate was incubated overnight at 4°C, washed 4 times over 10 minutes with Tris buffered saline containing Tween 20 (TBST) and tapped dry. Standard solutions of RCS-4 were prepared in TBST at 0, 0.3125, 0.625, 1.25, 2.5, 5, 10 and 20ng/ml, and 50µl of each was added to the appropriate wells (see figure 1). 75µl of conjugate (appropriate hapten-HRP) diluted in Tris buffer (pH 7.2) containing EDTA, D-mannitol, sucrose, thimerosal and BSA, was added to each of the wells. The appropriate dilution of conjugate was also determined using standard ELISA checkerboard techniques. The plate was incubated at 25°C for 1 hour. Excess unbound conjugate was removed by washing 6 times over a 10 minute period with TBST. 125µl oftetramethylbenzidine (TMB) substrate solution was added to each well of the plate that was then incubated for 20 minutes in the dark at room temperature. The reaction was terminated by addition of 125µl 0.2M H2SO4 to each well. The absorbance was then measured at 450nm using a microtiter plate reader. The data are inputted to a computer program called 'KC Junior'. It is a 4 parameter fit curve and allow the calculatation of concentrations between the standard runs. This program is used to calculate the IC50s by dividing the 0ng/ml OD value by 2 and obtaining the concentration value from the curve for this OD.
In a similar manner to that described above, the wells of a 96-well microtiter plate were coated with the IgG fraction of the antiserum raised to Immunogens IV, V, VII or VIII. Standard solutions (RCS-8 for Immunogen V) were prepared in TBST at 0, 1.25, 2.5, 5, 10, 20, 40 and 80ng/ml and conjugate was employed as detection reagent.
(§2) The data set our in Tables 3 and 4 are generated using antibodies raised against the indicated Immunogens in a competitive binding assay with the indicated tracers, using the indicated standards: Table 2
(§3) In order to determine the specificity of the competitive ELISAs, standard solutions of a range of structurally similar synthetic cannabinoids and their metabolites were prepared in TBST. Using the calibration curves generated and employing a single level of cross reactants, these were used to determine the cross-reactivity of each immunoassay with these substances. Table 4: Cross reactivity of the competitive ELISAs for synthetic cannabinoids and their metabolites
For `CCCCCn1cc(C(=O)c2ccccc2OC)c2ccccc21` [RCS-4 2-methoxy isomer], the “%B/B0” value was 68.38%.
In the case of `CCCCCn1cc(C(=O)c2cccc(OC)c2)c2ccccc21` [RCS-4 3-methoxy isomer], the “%B/B0” value is reported as 66.18%.
In the case of `COc1ccc(C(=O)c2cn(CCCC(C)O)c3ccccc23)cc1` (stereo not shown) [RCS-4 N-(4-hydroxypentyl) metabolite], the “%B/B0” value is reported as 71.93%.
In the case of `COc1ccc(C(=O)c2cn(CCCCCC(=O)O)c3ccccc23)cc1` [RCS-4 N-(5-carboxypentyl) metabolite], the “%B/B0” value is reported as 60.79%.
For `COc1ccc(C(=O)c2cn(CCCCCO)c3ccccc23)cc1` [RCS-4 N-(5-hydroxypentyl) metabolite], the “%B/B0” value was 63.69%.
In the case of `CCCCCn1cc(C(=O)c2ccc(OC)cc2)c2ccccc21` [RCS-4], the “%B/B0” value is reported as 64.84%.
For `COc1cccc(CC(=O)c2cn(CCC3CCCCC3)c3ccccc23)c1` [RCS-8 3-methoxy isomer], the “%B/B0” value was 38.01%.
With `COc1ccc(CC(=O)c2cn(CCC3CCCCC3)c3ccccc23)cc1` [RCS-8 4-methoxy isomer] the “%B/B0” value was 81.97%.
`COc1ccccc1CC(=O)c1cn(CCC2CCCCC2)c2ccccc12` [RCS-8 (SR-18)] was tested, and the “%B/B0” value was 8.34%.
With `NCCc1c[nH]c2ccc(O)cc12` [Serotonin HCl] the “%B/B0” value was 85.91%.
With `O=C(c1cccc2ccccc12)c1cn(CCN2CCOCC2)c2ccccc12` [WIN 55,225 (other name JWH-200)] the “%B/B0” value was 49.45%.
`COc1ccc(C(=O)c2c(C)n(CCN3CCOCC3)c3ccccc23)cc1` [WIN-48,098 (other name Pravadoline), Pravadoline] was tested, and the “%B/B0” value was 77.87%.
In the case of `CS(=O)(=O)O.Cc1c(C(=O)c2cccc3ccccc23)c2cccc3c2n1[C@@H](CN1CCOCC1)CO3` [Win 55,212-3 mesylate], the “%B/B0” value is reported as 72.78%.
For (+)-CP 55,940, the “%B/B0” value was 74.18%.
In the case of (-)-CP 55,940, the “%B/B0” value is reported as 91.41%.

Same assay, conditions: standard RCS-8; standard concentration which produces 50% B/B0
For `COc1ccccc1CC(=O)c1cn(CCC2CCCCC2)c2ccccc12` [RCS-8 (SR-18)], the “IC50” value was 7.23 ng/mL.

Same assay, conditions: standard curve, RCS-8 1.25 ng/ml
With `COc1ccccc1CC(=O)c1cn(CCC2CCCCC2)c2ccccc12` [RCS-8 (SR-18)] the “%B/B0” value was 82%.

Same assay, conditions: standard curve, RCS-8 2.5 ng/ml
With `COc1ccccc1CC(=O)c1cn(CCC2CCCCC2)c2ccccc12` [RCS-8 (SR-18)] the “%B/B0” value was 71%.

Same assay, conditions: standard curve, RCS-8 5 ng/ml
In the case of `COc1ccccc1CC(=O)c1cn(CCC2CCCCC2)c2ccccc12` [RCS-8 (SR-18)], the “%B/B0” value is reported as 57%.

Same assay, conditions: standard curve, RCS-8 10 ng/ml
`COc1ccccc1CC(=O)c1cn(CCC2CCCCC2)c2ccccc12` [RCS-8 (SR-18)] was tested, and the “%B/B0” value was 43%.

Same assay, conditions: standard curve, RCS-8 20 ng/ml
`COc1ccccc1CC(=O)c1cn(CCC2CCCCC2)c2ccccc12` [RCS-8 (SR-18)] was tested, and the “%B/B0” value was 34%.

Same assay, conditions: standard curve, RCS-8 40 ng/ml
For `COc1ccccc1CC(=O)c1cn(CCC2CCCCC2)c2ccccc12` [RCS-8 (SR-18)], the “%B/B0” value was 25%.

Same assay, conditions: standard curve, RCS-8 80 ng/ml
With `COc1ccccc1CC(=O)c1cn(CCC2CCCCC2)c2ccccc12` [RCS-8 (SR-18)] the “%B/B0” value was 19%.

These compounds were tested on Antibody to Immunogen III. Details: Cross-reactants at 100 ng/ml; 1000ng/ml; single level of cross reactants.
Format: binding, sheep
Experimental: as §1
In a similar manner to that described above, the wells of a 96-well microtiter plate were coated with the IgG fraction of the antiserum raised to Immunogens I, II or III. Standard solutions (JWH-250 for Immunogen III) were applied at 0, 0.625, 1.25, 2.5, 5, 10, 20 and 40ng/ml and conjugate was employed as detection reagent.
as §2, §3
For `CCCCCn1cc(C(=O)c2ccccc2OC)c2ccccc21` [RCS-4 2-methoxy isomer], the “%B/B0” value was 64.43%.
For `CCCCCn1cc(C(=O)c2cccc(OC)c2)c2ccccc21` [RCS-4 3-methoxy isomer], the “%B/B0” value was 58.00%.
`COc1ccc(C(=O)c2cn(CCCC(C)O)c3ccccc23)cc1` (stereo not shown) [RCS-4 N-(4-hydroxypentyl) metabolite] was tested, and the “%B/B0” value was 66.40%.
`COc1ccc(C(=O)c2cn(CCCCCC(=O)O)c3ccccc23)cc1` [RCS-4 N-(5-carboxypentyl) metabolite] was tested, and the “%B/B0” value was 91.87%.
`COc1ccc(C(=O)c2cn(CCCCCO)c3ccccc23)cc1` [RCS-4 N-(5-hydroxypentyl) metabolite] was tested, and the “%B/B0” value was 72.34%.
For `CCCCCn1cc(C(=O)c2ccc(OC)cc2)c2ccccc21` [RCS-4], the “%B/B0” value was 57.10%.
`COc1cccc(CC(=O)c2cn(CCC3CCCCC3)c3ccccc23)c1` [RCS-8 3-methoxy isomer] was tested, and the “%B/B0” value was 69.47%.
`COc1ccc(CC(=O)c2cn(CCC3CCCCC3)c3ccccc23)cc1` [RCS-8 4-methoxy isomer] was tested, and the “%B/B0” value was 76.06%.
`COc1ccccc1CC(=O)c1cn(CCC2CCCCC2)c2ccccc12` [RCS-8 (SR-18)] was tested, and the “%B/B0” value was 64.72%.
With `NCCc1c[nH]c2ccc(O)cc12` [Serotonin HCl] the “%B/B0” value was 87.69%.
`O=C(c1cccc2ccccc12)c1cn(CCN2CCOCC2)c2ccccc12` [WIN 55,225 (other name JWH-200)] was tested, and the “%B/B0” value was 88.39%.
`COc1ccc(C(=O)c2c(C)n(CCN3CCOCC3)c3ccccc23)cc1` [WIN-48,098 (other name Pravadoline), Pravadoline] was tested, and the “%B/B0” value was 89.21%.
In the case of `CS(=O)(=O)O.Cc1c(C(=O)c2cccc3ccccc23)c2cccc3c2n1[C@@H](CN1CCOCC1)CO3` [Win 55,212-3 mesylate], the “%B/B0” value is reported as 87.64%.
With (+)-CP 55,940 the “%B/B0” value was 92.49%.
In the case of (-)-CP 55,940, the “%B/B0” value is reported as 90.16%.

What follows are compounds tested on Antibody to Immunogen VI. Details: Cross-reactants at 100 ng/ml; 1000ng/ml; single level of cross reactants.
Format: binding, sheep
Experimental: as §1, §2, §3
For `CCCCCn1cc(C(=O)c2ccccc2OC)c2ccccc21` [RCS-4 2-methoxy isomer], the “%B/B0” value was 81.06%.
In the case of `CCCCCn1cc(C(=O)c2cccc(OC)c2)c2ccccc21` [RCS-4 3-methoxy isomer], the “%B/B0” value is reported as 41.84%.
With `COc1ccc(C(=O)c2cn(CCCC(C)O)c3ccccc23)cc1` (stereo not shown) [RCS-4 N-(4-hydroxypentyl) metabolite] the “%B/B0” value was 5.69%.
With `COc1ccc(C(=O)c2cn(CCCCCC(=O)O)c3ccccc23)cc1` [RCS-4 N-(5-carboxypentyl) metabolite] the “%B/B0” value was 4.25%.
`COc1ccc(C(=O)c2cn(CCCCCO)c3ccccc23)cc1` [RCS-4 N-(5-hydroxypentyl) metabolite] was tested, and the “%B/B0” value was 3.76%.
For `CCCCCn1cc(C(=O)c2ccc(OC)cc2)c2ccccc21` [RCS-4], the “%B/B0” value was 4.90%.
In the case of `COc1cccc(CC(=O)c2cn(CCC3CCCCC3)c3ccccc23)c1` [RCS-8 3-methoxy isomer], the “%B/B0” value is reported as 79.95%.
With `COc1ccc(CC(=O)c2cn(CCC3CCCCC3)c3ccccc23)cc1` [RCS-8 4-methoxy isomer] the “%B/B0” value was 89.48%.
In the case of `COc1ccccc1CC(=O)c1cn(CCC2CCCCC2)c2ccccc12` [RCS-8 (SR-18)], the “%B/B0” value is reported as 85.46%.
With `NCCc1c[nH]c2ccc(O)cc12` [Serotonin HCl] the “%B/B0” value was 98.60%.
In the case of `O=C(c1cccc2ccccc12)c1cn(CCN2CCOCC2)c2ccccc12` [WIN 55,225 (other name JWH-200)], the “%B/B0” value is reported as 71.03%.
For `COc1ccc(C(=O)c2c(C)n(CCN3CCOCC3)c3ccccc23)cc1` [WIN-48,098 (other name Pravadoline), Pravadoline], the “%B/B0” value was 23.84%.
In the case of `CS(=O)(=O)O.Cc1c(C(=O)c2cccc3ccccc23)c2cccc3c2n1[C@@H](CN1CCOCC1)CO3` [Win 55,212-3 mesylate], the “%B/B0” value is reported as 83.98%.
In the case of (+)-CP 55,940, the “%B/B0” value is reported as 94.76%.
(-)-CP 55,940 was tested, and the “%B/B0” value was 94.76%.

Same assay, conditions: standard RCS-4; standard concentration which produces 50% B/B0
`CCCCCn1cc(C(=O)c2ccc(OC)cc2)c2ccccc21` [RCS-4] was tested, and the “IC50” value was 1.020 ng/mL.

Same assay, conditions: standard curve, RCS-4 0.3125 ng/ml
In the case of `CCCCCn1cc(C(=O)c2ccc(OC)cc2)c2ccccc21` [RCS-4], the “%B/B0” value is reported as 74%.

Same assay, conditions: standard curve, RCS-4 0.625 ng/ml
`CCCCCn1cc(C(=O)c2ccc(OC)cc2)c2ccccc21` [RCS-4] was tested, and the “%B/B0” value was 60%.

Same assay, conditions: standard curve, RCS-4 1.25 ng/ml
`CCCCCn1cc(C(=O)c2ccc(OC)cc2)c2ccccc21` [RCS-4] was tested, and the “%B/B0” value was 46%.

Same assay, conditions: standard curve, RCS-4 2.5 ng/ml
For `CCCCCn1cc(C(=O)c2ccc(OC)cc2)c2ccccc21` [RCS-4], the “%B/B0” value was 34%.

Same assay, conditions: standard curve, RCS-4 5 ng/ml
With `CCCCCn1cc(C(=O)c2ccc(OC)cc2)c2ccccc21` [RCS-4] the “%B/B0” value was 25%.

Same assay, conditions: standard curve, RCS-4 10 ng/ml
In the case of `CCCCCn1cc(C(=O)c2ccc(OC)cc2)c2ccccc21` [RCS-4], the “%B/B0” value is reported as 18%.

Same assay, conditions: standard curve, RCS-4 20 ng/ml
With `CCCCCn1cc(C(=O)c2ccc(OC)cc2)c2ccccc21` [RCS-4] the “%B/B0” value was 13%.
